This is an account of results in patent publication US4299834A, “8-Phenyl-purines and pharmaceutical compositions containing same” (Boehringer Ingelheim Gesellschaft mit beschrankter Haftung, priority 1979, dated 1981).

For one data set, the system named is white mice. Briefly: Acute Toxicity in white mice after oral administration. Type of data set: in vivo. Conditions: single dose of 300 mg/kg, observation time 14 days. Here is the method:
(§1) The acute toxicity of the test compounds was determined in white mice after oral administration of a single dose of 300 mg/kg (observation time: 14 days).

Assay in data set [1]: as above
As to conditions: mouse, in vivo, single dose of 300 mg/kg, observation time 14 days. The data set is classed as in vivo. How it is done:
as §1

SMILES strings stand for the structures.

In the case of `COc1ccc(-c2nc3ncncc3[nH]2)c(OC)c1` [A, 8-(2,4-Dimethoxy-phenyl)-purine], the animals died in the data set on white mice is recorded as 0 out of 6. The same compound showed an LD50 at 336 h in data set [1] of over 300 mg/kg.
In the same order, the values of `COc1cc(SC)ccc1-c1nc2ncncc2[nH]1` [B, 8-(2-Methoxy-4-methylmercapto-phenyl)-purine] are 2 out of 6 and over 300 mg/kg.
Regarding `COc1ccc(-c2nc3ncncc3[nH]2)c(OCCSC)c1` [C, 8-[4-Methoxy-2-(2-methylmercapto-ethoxy)-phenyl]purine], in the data set with white mice, the animals died is recorded as 0 out of 6. Also, in data set [1], the LD50 at 336 h is over 300 mg/kg.
For `COc1ccc(-c2nc3ncncc3[nH]2)c(OCC[S+](C)[O-])c1` (stereo not drawn) [D, 8-[4-Methoxy-2-(2-methylsulfinyl-ethoxy)-phenyl]purine], the animals died with white mice is 0 out of 6. In addition, in data set [1], the LD50 at 336 h was over 300 mg/kg.
As to `COc1cc(Cl)ccc1-c1nc2ncncc2[nH]1` [G, 8-(4-Chloro-2-methoxy-phenyl)-purine], the animals died with white mice is 1 out of 6. This compound also registered an LD50 at 336 h in data set [1] of over 300 mg/kg.
Take `COc1cc([S+](C)[O-])ccc1-c1nc2ncncc2[nH]1` (stereo not drawn) [H, 8-(2-Methoxy-4-methylsulfinyl-phenyl)-purine]: in the data set with white mice, the animals died is reported as 3 out of 6. The same compound gave a 50% lethal dose (LD50) at 336 h in data set [1] of about 300 mg/kg.
